ChEMBL document CHEMBL4219115, “Synthesis and evaluation of 4',5'-dihydrospiro[piperidine-4,7'-thieno[2,3-c]pyran] analogues against both active and dormant Mycobacterium tuberculosis” (Bioorg Med Chem, 2018)
pIC50: −log10 of the molar value. In brackets after ≈: the same amount, converted by molar mass.

Key:
[1] = tested on: Mycobacterium tuberculosis; experiment: Antimycobacterial activity against Mycobacterium tuberculosis H37Rv measured after 6 days by resazurin assay; format: functional; details: 144 h
[2] = tested on: Mycobacterium tuberculosis; experiment: Antimycobacterial activity against active form of Mycobacterium tuberculosis H37Rv measured after 7 days by alamar blue assay; format: functional; details: 168 h
[3] = tested on: RAW264.7; experiment: Cytotoxicity against mouse RAW264.7 cells assessed as reduction in cell viability at 50 ug/ml after 48 hrs by MTT assay; format: cell-based; details: raw264.7, 48 h
[4] = target: T1, L-lysine-epsilon aminotransferase (Mycobacterium tuberculosis, UniProt P9WQ77); experiment: Inhibition of Mycobacterium tuberculosis LAT using L-lysine and alpha-ketoglutaric acid as substrate by spectrophotometric analysis
T1 sequence (P9WQ77 whole entry): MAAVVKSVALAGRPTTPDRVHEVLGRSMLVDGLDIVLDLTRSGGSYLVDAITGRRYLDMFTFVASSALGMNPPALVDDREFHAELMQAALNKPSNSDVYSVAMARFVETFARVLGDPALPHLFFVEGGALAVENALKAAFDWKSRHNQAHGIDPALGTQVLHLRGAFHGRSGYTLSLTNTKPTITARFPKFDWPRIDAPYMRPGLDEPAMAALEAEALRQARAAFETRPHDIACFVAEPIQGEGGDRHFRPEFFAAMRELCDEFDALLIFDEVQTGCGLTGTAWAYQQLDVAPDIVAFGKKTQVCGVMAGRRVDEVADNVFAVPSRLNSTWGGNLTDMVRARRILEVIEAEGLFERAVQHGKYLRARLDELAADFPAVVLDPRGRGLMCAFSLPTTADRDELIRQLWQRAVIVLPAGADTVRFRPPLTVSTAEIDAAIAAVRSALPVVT

[5] = tested on: Mycobacterium tuberculosis; experiment: Antimycobacterial activity against nutrient starved dormant form of Mycobacterium tuberculosis H37Rv assessed as log reduction in bacterial count at 10 ug/ml measured after 7 days by […] relative to control; format: functional

With `c1cc2c(s1)CCOC21CCN(Cc2ccc3c(c2)OCCO3)CC1` as the molecule, how does the MIC [1] read?
The MIC was 0.38 µM (≈ 0.136 µg/mL).

Which MIC [2] does the source give for `c1ccc(CN2CCC3(CC2)OCCc2ccsc23)cc1` here?
The MIC was 83.5 µM (≈ 25 µg/mL).

`O=C(c1ccccc1)N1CCC2(CC1)OCCc1ccsc12` was tested. Which MIC [2] did it give?
Its MIC is 79.8 µM (≈ 25 µg/mL).

For `COc1ccc(S(=O)(=O)N2CCC3(CC2)OCCc2ccsc23)cc1`, which Activity [3] is on record?
Its Activity is 12.32%.

And the MIC [2]?
Its MIC is 8.23 µM (≈ 3.12 µg/mL).

What about the pIC50 [4] of the same molecule?
The pIC50 was 5.98.

And the “log(activity)” value [5]?
Its value is 2.8.

With `Clc1ccc(CN2CCC3(CC2)OCCc2ccsc23)c(Cl)c1` as the molecule, how does the MIC [2] read?
The MIC was 33.9 µM (≈ 12.5 µg/mL).

For `Cc1ccc(S(=O)(=O)N2CCC3(CC2)OCCc2ccsc23)cc1`, which Activity [3] is on record?
The Activity was 22.16%.

What about the MIC [2] of the same molecule?
The MIC was 8.59 µM (≈ 3.12 µg/mL).

`Fc1ccc(CN2CCC3(CC2)OCCc2ccsc23)c(F)c1` was tested. Which MIC [2] did it give?
The MIC was 37.3 µM (≈ 12.5 µg/mL).

For `O=S(=O)(c1ccc(Cl)cc1Cl)N1CCC2(CC1)OCCc1ccsc12`, which MIC [2] is on record?
The MIC was 29.9 µM (≈ 12.5 µg/mL).

For `O=S(=O)(c1ccc(F)cc1)N1CCC2(CC1)OCCc1ccsc12`, which MIC [2] is on record?
The MIC was 34 µM (≈ 12.5 µg/mL).

What does the source list for `COc1ccc(C(=O)N2CCC3(CC2)OCCc2ccsc23)cc1`?
Activity [3]: 14.59%; MIC [2]: 9.09 µM (≈ 3.12 µg/mL)

What does the source list for `Cc1ccc(C(=O)N2CCC3(CC2)OCCc2ccsc23)cc1`?
Activity [3]: 23.16%; MIC [2]: 19.1 µM (≈ 6.25 µg/mL)

For `O=C(c1ccc(F)cc1)N1CCC2(CC1)OCCc1ccsc12`, which Activity [3] is on record?
The Activity was 18.98%.

What about the MIC [2] of the same molecule?
Its MIC is 18.9 µM (≈ 6.25 µg/mL).

For `O=S(=O)(c1ccc(Cl)cc1)N1CCC2(CC1)OCCc1ccsc12`, which MIC [2] is on record?
The MIC was 65.1 µM (≈ 25 µg/mL).

Which MIC [2] does the source give for `Cc1ccc(CN2CCC3(CC2)OCCc2ccsc23)cc1` here?
Its MIC is 79.8 µM (≈ 25 µg/mL).

How did the Activity [3] turn out when `Clc1ccc(CN2CCC3(CC2)OCCc2ccsc23)cc1` was run?
The Activity was 26.54%.

And the MIC [2]?
Its MIC is 9.35 µM (≈ 3.12 µg/mL).

And the pIC50 [4]?
The pIC50 was 5.17.

What about the “log(activity)” value [5] of the same molecule?
Its value is 2.4.

`Fc1ccc(CN2CCC3(CC2)OCCc2ccsc23)cc1` was tested. Which Activity [3] did it give?
The Activity was 21.67%.

And the MIC [2]?
Its MIC is 19.7 µM (≈ 6.25 µg/mL).

Which results are given for `O=C(c1ccc(F)cc1F)N1CCC2(CC1)OCCc1ccsc12`?
Activity [3]: 34.06%; MIC [2]: 8.94 µM (≈ 3.12 µg/mL); pIC50 [4]: 5.46; log(activity) [5]: 2.7

With `COc1ccc(CN2CCC3(CC2)OCCc2ccsc23)cc1` as the molecule, how does the MIC [2] read?
The MIC was 23.1 µM (≈ 7.62 µg/mL).

With `O=S(=O)(c1ccccc1)N1CCC2(CC1)OCCc1ccsc12` as the molecule, how does the MIC [2] read?
The MIC was 71.5 µM (≈ 25 µg/mL).

With `O=C(c1ccc(Cl)cc1)N1CCC2(CC1)OCCc1ccsc12` as the molecule, how does the MIC [2] read?
The MIC was 71.9 µM (≈ 25 µg/mL).

Which results are given for `O=S(=O)(c1ccc(F)cc1F)N1CCC2(CC1)OCCc1ccsc12`?
Activity [3]: 31.08%; MIC [2]: 16.2 µM (≈ 6.25 µg/mL)

Which MIC [2] does the source give for `O=C(c1ccc(Cl)cc1Cl)N1CCC2(CC1)OCCc1ccsc12` here?
Its MIC is 32.7 µM (≈ 12.5 µg/mL).

With `CC[C@@H](CO)NCCN[C@@H](CC)CO` [ETHAMBUTOL] as the molecule, how does the MIC [2] read?
The MIC was 9.84 µM (≈ 2.01 µg/mL).

With `NNC(=O)c1ccncc1` [ISONIAZID] as the molecule, how does the MIC [2] read?
The MIC was 0.66 µM (≈ 0.0905 µg/mL).

What about the “log(activity)” value [5] of the same molecule?
The value was 1.7.

`CC1COc2c(N3CCN(C)CC3)c(F)cc3c(=O)c(C(=O)O)cn1c23` (configuration not stated) [OFLOXACIN] was tested. Which MIC [2] did it give?
The MIC was 2.16 µM (≈ 0.781 µg/mL).

For `CO[C@H]1/C=C/O[C@@]2(C)Oc3c(C)c(O)c4c(O)c(c(/C=N/N5CCN(C)CC5)c(O)c4c3C2=O)NC(=O)/C(C)=C\C=C\[C@H](C)[C@H](O)[C@@H](C)[C@@H](O)[C@@H](C)[C@H](OC(C)=O)[C@@H]1C` [RIFAMPIN], which “log(activity)” value [5] is on record?
The value was 2.
